{"source": "paper PMC7367283", "about": "“A PIP2 substitute mediates voltage sensor-pore coupling in KCNQ activation” (Communications Biology, 2020)", "target": "T1, Kir1.1 (Homo sapiens, UniProt P48048)", "T1 sequence (P48048 1-391)": "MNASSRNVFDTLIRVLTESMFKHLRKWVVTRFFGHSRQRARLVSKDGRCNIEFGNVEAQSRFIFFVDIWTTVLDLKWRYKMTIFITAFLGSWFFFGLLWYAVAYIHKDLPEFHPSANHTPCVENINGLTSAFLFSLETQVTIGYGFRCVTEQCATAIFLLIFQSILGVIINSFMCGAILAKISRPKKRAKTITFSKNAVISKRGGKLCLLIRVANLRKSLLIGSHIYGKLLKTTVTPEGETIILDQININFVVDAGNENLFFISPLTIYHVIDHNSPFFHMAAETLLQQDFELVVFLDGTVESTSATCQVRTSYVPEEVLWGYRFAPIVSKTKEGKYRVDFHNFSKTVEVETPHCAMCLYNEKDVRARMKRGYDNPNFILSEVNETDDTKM", "test": "Two-electrode voltage clamp of Kir1.1 in Xenopus oocytes", "format": "cell-based", "conditions": "10 µM CP1; for Current (Fig. 6b): mean", "source_text": "Since CP1 has a similar effect to PIP2 in mediating VSD-pore coupling in KCNQ channels, we tested if CP1 has effects on other ion channels that are also sensitive to PIP2 or are voltage activated and share general structural features of the VSD and the pore with KCNQ. […] On the other hand, NaV1.5 and KV4.2 are voltage-gated ion channels.\nFig. 6 Effects of CP1 on other ion channels expressed in Xenopus oocytes. a Currents of Kir1.1, CaV1.2, NaV1.5, hERG, and KV4.2 before and after application of 10 µM CP1, respectively. The voltages for holding, test, and returning pulses were Kir1.1, 0 mV, −100 to +60 mV, 0; CaV1.2, −100 mV, −100 to +60, −100 mV; NaV1.5, −100, −120 to +40 mV, −120 mV; hERG, −80 mV, −90 to +60 mV, −60 mV; KV4.2, −80 mV, −100 mV to +80 mV, −40 mV; HCN4, −30 mV, −30 to −140 mV, −120 mV. b Current–voltage relations of Kir1.1 channel in the absence or presence of 10 µM CP1 (n = 7). c–g G–V relations of indicated channels with and without 10 µM CP1. The ΔV1/2 of G–V relations (mV) are CaV1.2, 3.38 ± 0.71 mV (c); NaV1.5, −2.26 ± 0.95 mV (d); hERG, 6.85 ± 1.81 mV (e); KV 4.2, −2.26 ± 2.88 mV (f); HCN4, 17.13 ± 1.59 mV (g).\nComplementary DNA (cDNA) encoding human KCNQ1 (UniProtKB/Swiss‐Prot under accession no. P51787), KCNQ2 (O43526), KCNQ3 (O43525), KCNE1 (P15382), Kir1.1 (P48048), hERG (Q12809), KV4.2 (Q63881), NaV1.5 (Q14524), NaV β1 (Q07699), CaV1.2 (Q13936), CaV β1a (Q02641), CaV α2/δ1 (P54289), and HCN4 (Q9Y3Q4) were subcloned into oocyte expression vectors, respectively. Site-directed mutations of the KCNQ1 channel were all produced by overlap extension polymerase chain reaction (PCR) with high-fidelity Pfu polymerase (Stratagene, CA). The presence of the desired mutation was verified by sequencing the PCR-amplified regions. All the primer sequences used in this study are available in Supplementary Table 1. The complementary RNA (cRNA) of all these channels and mutations was transcribed in vitro with the T3, T7, or SP6 polymerase mMessage mMachine kit (Invitrogen, Thermo Fisher Scientific, MO).\nThe whole-oocyte ionic currents were recorded with a GeneClamp 500B amplifier (Axon Instruments, CA) or iTEV90 amplifier (HEKA, Germany) and then sampled at 1 kHz and low-pass-filtered at 2 kHz. The Patchmaster software (HEKA, Germany) was used to acquire data. The Kir1.1 current was recorded with a high K^+ bath solution containing (in mM) 96 KCl, 4 NaCl, 1 CaCl2, 2 MgCl2, and 10 HEPES, pH 7.3–7.4. The HCN4 current was recorded in ND66 solution containing (in mM) 66 NaCl, 32 KCl, 1.8 CaCl2, 1 MgCl2, and 5 HEPES, pH 7.6. All the other potassium channels were recorded in ND96 solution. The currents of CaV1.2 channel were recorded in 40 mM Ba^2+ bath solution containing (in mM) 40 Ba(OH)2, 50 TEA-OH, 2 KOH, and 5 HEPES, adjusted to pH 7.4 with methanesulfonic acid. CP1 (DISODIUM 5-BROMO-2-[9-CHLORO-3-(SULFONATOOXY) NAPHTHO [1,2-B] THIEN-2-YL]-1H-INDOL-3-YL SULFATE, Sigma-Aldrich, MO) and Chromanol 293B (Sigma-Aldrich, MO) were dissolved in bath solutions. All the chemicals were purchased from Sigma-Aldrich. To measure the I–V relations of the Kir1.1 channel, the test voltage was set from −100 to +60 mV for 1 s with 20-mV increments. The test pulses were stepped from a holding potential of 0 mV and then stepped back to 0 mV. The HCN4 currents were recorded by a test pulse between −30 and −140 mV in 10-mV step from a holding potential of −30 mV. For all the other potassium channels and CaV1.2 channel, the holding potential was −80 or −100 mV, and the test pulse was applied with 10-mV increment, which was followed with a repolarization pulse at −40 mV before returning to the holding potential. The durations of test and the repolarization pulse vary for different channels to allow the activation and deactivation of the channel to reach their steady states.", "data": [{"smiles": "O=S(=O)([O-])Oc1c(-c2sc3c(ccc4cccc(Cl)c43)c2OS(=O)(=O)[O-])[nH]c2ccc(Br)cc12.[Na+].[Na+]", "note": "[CP1, DISODIUM 5-BROMO-2-[9-CHLORO-3-(SULFONATOOXY) NAPHTHO [1,2-B] THIEN-2-YL]-1H-INDOL-3-YL SULFATE]", "values": [{"measurement": "effect on currents of Kir1.1", "result": "little effect"}, {"measurement": "Current (Fig. 6b)", "setting": "voltage 0 mV", "result": -0.8738, "unit": "µA"}, {"measurement": "Current (Fig. 6b)", "setting": "voltage 20 mV", "result": 8.1285, "unit": "µA"}, {"measurement": "Current (Fig. 6b)", "setting": "voltage 40 mV", "result": 17.0203, "unit": "µA"}, {"measurement": "Current (Fig. 6b)", "setting": "voltage 60 mV", "result": 25.9074, "unit": "µA"}, {"measurement": "Current (Fig. 6b)", "setting": "voltage -20 mV", "result": -9.7186, "unit": "µA"}, {"measurement": "Current (Fig. 6b)", "setting": "voltage -40 mV", "result": -18.5616, "unit": "µA"}, {"measurement": "Current (Fig. 6b)", "setting": "voltage -60 mV", "result": -27.3089, "unit": "µA"}, {"measurement": "Current (Fig. 6b)", "setting": "voltage -80 mV", "result": -36.1588, "unit": "µA"}, {"measurement": "Current (Fig. 6b)", "setting": "voltage -100 mV", "result": -44.9245, "unit": "µA"}]}]}
